Test results taken from paper PMC5896380, “Selective imaging of cathepsin L in breast cancer by fluorescent activity-based probes” (Chemical Science, 2018).
Non-standard residues stand in square brackets, D forms with d. *: point of attachment. Phe(F5) = N[C@@H](Cc1c(F)c(F)c(F)c(F)c1F)C(=O)O; Phe(3-Cl) = N[C@@H](Cc1cccc(Cl)c1)C(=O)O; ACC = NC(=O)Cc1cc(=O)oc2cc(N*)ccc12; hArg = N=C(N)NCCCC[C@H](N)C(=O)O; Orn = NCCC[C@H](N)C(=O)O; Dab = NCC[C@H](N)C(=O)O; Dap = NC[C@H](N)C(=O)O; Mob = COc1ccc(C*)cc1; Meb = Cc1ccc(C*)cc1; OBn = c1ccc(CO*)cc1

Legend:
Format in all cases: biochemical
cathepsin K = target: T1, cathepsin K (Homo sapiens, UniProt P43235); assay: Kinetic parameters of ACC substrates with cathepsin K; settings: Fig. 5B; pH 5.5, 37 °C; cathepsin K 5–20 nM; triplicate, SD below 15%
T1 construct: made in house
T1 sequence (P43235 115-329): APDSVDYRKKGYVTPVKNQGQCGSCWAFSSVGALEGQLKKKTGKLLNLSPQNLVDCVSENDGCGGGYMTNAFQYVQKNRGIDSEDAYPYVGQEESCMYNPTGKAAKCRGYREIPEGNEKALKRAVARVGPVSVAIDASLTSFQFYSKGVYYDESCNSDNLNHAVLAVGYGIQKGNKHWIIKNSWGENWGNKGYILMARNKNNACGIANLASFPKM
Experimental: (§1) All kinetic experiments were performed using fMax (Molecular Devices) and CLARIOStar (BMG LABTECH) spectrofluorimeters operating in kinetic mode using 96-well plates. ACC-labeled substrates were screened using 355 nm and 460 nm wavelengths (excitation and emission, respectively). […] The buffer was prepared at room temperature and the enzyme kinetic studies were performed at 37 °C.
(§2) Classic substrate velocity plots were analyzed according to Michaelis–Menten kinetics and a detailed protocol for the determination of kinetic parameters for ACC-tagged substrates is found elsewhere.[56] […] Experiments were repeated at least three times and results are presented as an average. The SDs were below 15%.

cathepsin S = target: T2, cathepsin S (Homo sapiens, UniProt P25774); assay: Kinetic parameters of ACC substrates with cathepsin S; settings: Fig. 5B; pH 5.5, 37 °C; cathepsin S 5–20 nM; triplicate, SD below 15%
T2 construct: made in house
Experimental: as §1, §2

cathepsin B = target: T3, cathepsin B (Homo sapiens, UniProt P07858); assay: Kinetic parameters of ACC substrates with cathepsin B; settings: Fig. 5B; pH 5.5, 37 °C; cathepsin B 4–15 nM; triplicate, SD below 15%
T3 construct: made in house
Experimental: as §1, §2

cathepsin L = target: T4, cathepsin L (Homo sapiens, UniProt P07711); assay: Kinetic parameters of ACC substrates with cathepsin L; settings: for Km: read-out: KM
T4 construct: made in house
Experimental: as §1, §2

cathepsin V = target: T5, cathepsin V (Homo sapiens, UniProt O60911); assay: Kinetic parameters of ACC substrates with cathepsin V; settings: Fig. 5B; pH 5.5, 37 °C; cathepsin V 10–20 nM; triplicate, SD below 15%
T5 construct: made in house
Experimental: as §1, §2

[1] = Fig. 4B, ACC substrates, 100 mM sodium acetate, 100 mM NaCl, 10 mM DTT, 1 mM EDTA, pH 5.5, 37 °C, cathepsin L 0.1–0.5 nM, average of at least three, SD below 15%
[2] = Table S2, cathepsin L, four independent experiments, S.D. below 15%

T4 sequence (P07711 114-333): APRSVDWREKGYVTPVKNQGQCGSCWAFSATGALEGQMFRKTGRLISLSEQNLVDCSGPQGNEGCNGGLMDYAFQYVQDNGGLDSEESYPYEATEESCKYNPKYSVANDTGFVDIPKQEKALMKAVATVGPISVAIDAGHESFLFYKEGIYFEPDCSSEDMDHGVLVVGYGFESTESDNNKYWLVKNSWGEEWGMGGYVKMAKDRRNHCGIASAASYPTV
T5 sequence (O60911 114-334): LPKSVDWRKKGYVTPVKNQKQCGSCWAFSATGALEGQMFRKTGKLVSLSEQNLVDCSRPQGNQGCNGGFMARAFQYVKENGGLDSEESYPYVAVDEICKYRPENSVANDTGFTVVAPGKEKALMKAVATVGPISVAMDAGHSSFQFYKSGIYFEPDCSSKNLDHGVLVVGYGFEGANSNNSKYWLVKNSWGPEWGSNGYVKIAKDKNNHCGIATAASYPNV
T2 sequence (P25774 115-331): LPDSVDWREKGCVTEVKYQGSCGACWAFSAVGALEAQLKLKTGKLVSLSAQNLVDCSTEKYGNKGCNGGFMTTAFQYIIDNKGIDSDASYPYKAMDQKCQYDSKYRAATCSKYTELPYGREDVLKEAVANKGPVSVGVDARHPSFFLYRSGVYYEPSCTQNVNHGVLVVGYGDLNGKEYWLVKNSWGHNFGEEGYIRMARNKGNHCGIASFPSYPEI

| Substance | kcat/KM (cathepsin L; [1]) | kcat (cathepsin L; [2]) | Km (cathepsin L; [2]) | kcat/KM (cathepsin L; [2]) | other results |
| --- | --- | --- | --- | --- | --- |
| Ac-H[dV][Phe(F5)]C(Meb)-{ACC} (SMILES CC(=O)N[C@@H](Cc1c[nH]cn1)C(=O)N[C@@H](C(=O)N[C@@H](Cc1c(F)c(F)c(F)c(F)c1F)C(=O)N[C@@H](CSCc1ccc(C)cc1)C(=O)Nc1ccc2c(CC(N)=O)cc(=O)oc2c1)C(C)C) |  |  |  |  | kcat/KM Cath-K (cathepsin K): < 10 M⁻¹ s⁻¹; kcat/KM Cath-S (cathepsin S): < 10 M⁻¹ s⁻¹; kcat/KM Cath-B (cathepsin B): 2,290 M^-1s^-1; kcat/KM Cath-L (cathepsin L; Fig. 5B, pH 5.5, 37 °C, cathepsin L 0.1–0.5 nM, triplicate, SD below 15%): 1,476,000 M^-1s^-1; kcat/KM Cath-V (cathepsin V): 1,740 M^-1s^-1 |
| Ac-[Dap][Orn][Phe(3-Cl)]C(Mob)-{ACC} (SMILES COc1ccc(CSC[C@H](NC(=O)[C@H](Cc2cccc(Cl)c2)NC(=O)[C@H](CCCN)NC(=O)[C@H](CN)NC(C)=O)C(=O)Nc2ccc3c(CC(N)=O)cc(=O)oc3c2)cc1) | 48,350,000 M^-1s^-1 | 193 s⁻¹ | 4.15 µM |  | hydrolysis by cathepsin L relative to Ac-His-Arg-Phe-Arg-ACC substrate (cathepsin L; kcat/KM compared with reference substrate): ~4 times |
| Ac-[Dab][Orn][Phe(3-Cl)]R-{ACC} (SMILES CC(=O)N[C@@H](CCN)C(=O)N[C@@H](CCCN)C(=O)N[C@@H](Cc1cccc(Cl)c1)C(=O)N[C@@H](CCCNC(=N)N)C(=O)Nc1ccc2c(CC(N)=O)cc(=O)oc2c1) | 35,070,000 M^-1s^-1 |  |  |  |  |
| Ac-[Dap][Orn][Phe(3-Cl)]L-{ACC} (SMILES CC(=O)N[C@@H](CN)C(=O)N[C@@H](CCCN)C(=O)N[C@@H](Cc1cccc(Cl)c1)C(=O)N[C@@H](CC(C)C)C(=O)Nc1ccc2c(CC(N)=O)cc(=O)oc2c1) | 11,290,000 M^-1s^-1 | 41.8 s⁻¹ | 3.7 µM | 11,290,000 M-1s-1 |  |
| Ac-[Dap][Orn][Phe(3-Cl)]E(OBn)-{ACC} (SMILES CC(=O)N[C@@H](CN)C(=O)N[C@@H](CCCN)C(=O)N[C@@H](Cc1cccc(Cl)c1)C(=O)N[C@@H](CCC(=O)OCc1ccccc1)C(=O)Nc1ccc2c(CC(N)=O)cc(=O)oc2c1) | 34,270,000 M^-1s^-1 | 188 s⁻¹ | 5.67 µM | 34,270,000 M-1s-1 |  |
| Ac-[Dap][Orn][Phe(3-Cl)]R-{ACC} (SMILES CC(=O)N[C@@H](CN)C(=O)N[C@@H](CCCN)C(=O)N[C@@H](Cc1cccc(Cl)c1)C(=O)N[C@@H](CCCNC(=N)N)C(=O)Nc1ccc2c(CC(N)=O)cc(=O)oc2c1) | 36,310,000 M^-1s^-1 | 195 s⁻¹ | 5.38 µM | 36,310,000 M-1s-1 |  |
| Ac-[Dap]R[Phe(3-Cl)]R-{ACC} (SMILES CC(=O)N[C@@H](CN)C(=O)N[C@@H](CCCNC(=N)N)C(=O)N[C@@H](Cc1cccc(Cl)c1)C(=O)N[C@@H](CCCNC(=N)N)C(=O)Nc1ccc2c(CC(N)=O)cc(=O)oc2c1) | 25,400,000 M^-1s^-1 |  |  |  |  |
| Ac-[Dap][Orn][Phe(3-Cl)]C(Meb)-{ACC} (SMILES CC(=O)N[C@@H](CN)C(=O)N[C@@H](CCCN)C(=O)N[C@@H](Cc1cccc(Cl)c1)C(=O)N[C@@H](CSCc1ccc(C)cc1)C(=O)Nc1ccc2c(CC(N)=O)cc(=O)oc2c1) | 41,660,000 M^-1s^-1 | 207 s⁻¹ | 4.99 µM |  |  |
| Ac-[Dap][Orn][Phe(3-Cl)]K-{ACC} (SMILES CC(=O)N[C@@H](CN)C(=O)N[C@@H](CCCN)C(=O)N[C@@H](Cc1cccc(Cl)c1)C(=O)N[C@@H](CCCCN)C(=O)Nc1ccc2c(CC(N)=O)cc(=O)oc2c1) | 19,810,000 M^-1s^-1 | 141 s⁻¹ | 7.11 µM | 19,810,000 M-1s-1 |  |
| Ac-[Dap][Orn][Phe(3-Cl)][hArg]-{ACC} (SMILES CC(=O)N[C@@H](CN)C(=O)N[C@@H](CCCN)C(=O)N[C@@H](Cc1cccc(Cl)c1)C(=O)N[C@@H](CCCCNC(=N)N)C(=O)Nc1ccc2c(CC(N)=O)cc(=O)oc2c1) | 30,500,000 M^-1s^-1 | 123 s⁻¹ | 4.21 µM | 30,500,000 M-1s-1 |  |
